From PMC9148403, “1,3,5-triazines inhibit osteosarcoma and avert lung metastasis in a patient-derived orthotopic xenograft mouse model with favorable pharmacokinetics” (Iranian Journal of Basic Medical Sciences, 2022)

How the values were obtained:
PI3K = PI3K luminescent kinase assay (Promega); type: biochemical; conditions: read-out: Kinase inhibition IC50 PI3K
Text: (§1) PI3K and mTOR kinase inhibition assay
(§2) The inhibitory activity of developed molecules against PI3K and mTOR was identified using luminescent kinase assay, and Lance Ultra assay from Promega, USA, respectively as per our earlier reported procedure ([38]).

mTOR = mTOR (Homo sapiens, UniProt P42345); assay: mTOR Lance Ultra kinase assay; type: biochemical; conditions: read-out: Kinase inhibition IC50 mTOR
Text: as §1, §2

K562 = assay: Cellular antiproliferation assay (CCK-8), K562; type: cell-based, human; conditions: K562 cells, read-out: Cell growth inhibition IC50 K562
KU812 = assay: Cellular antiproliferation assay (CCK-8), KU812; type: cell-based, human; conditions: KU812 cells, read-out: Cell growth inhibition IC50 KU812
Saos-2 = assay: Cellular antiproliferation assay (CCK-8), Saos-2; type: cell-based, human; conditions: Saos-2 cells, read-out: Cell growth inhibition IC50 Saos-2
Method: The human osteosarcoma cancer cell lines MG-63, U2-OS, and Saos-2 were purchased from CBSIBCB of the Chinese Academy of Sciences (Shanghai, China)
Cellular antiproliferation assay using cell counting kit (CCK-8)
The CCK-8 assay was used in the current study to analyze the effect of compounds on cellular proliferation. The transfected cells were seeded in a 96-well plate, and to this CCK-8 (20 µl) was added. The enzyme microplate reader at 450 nm was used to record the absorbance. The inhibitory effect on cellular proliferation was obtained as per the given formula: Inhibitory activity (%) = (1 - Atest/Acontrol) × 100 %.

Saos-2 cells [1] = assay: Cell cycle analysis by flow cytometry; type: cell-based, human; conditions: Saos-2 cells, 10, 20 and 30 µM
Method: The effect of compound 8a (0, 10, 20, and 30 µM) was investigated on the cell cycle of Saos-2 cells as per our earlier reported procedure using a FACSCalibur flow cytometer with CellQuest V.3.3 software (BD Biosciences, USA) ([38]).

Saos-2 cells [2] = assay: Flow cytometric apoptosis assay (Annexin V/PI); type: cell-based, human; conditions: Saos-2 cells, 10, 20 and 30 µM
Method: Flow cytometric apoptosis assay
The effect of compound 8a (0, 10, 20, and 30 µM) on apoptosis was investigated on Saos-2 cells as per our earlier reported procedure using a FACSCalibur flow cytometer with CellQuest V.3.3 software (BD Biosciences, USA) ([38]).

[3] = test system: patient-derived osteosarcoma; assay: Osteosarcoma patient-derived orthotopic xenograft (PDOX) mouse model; type: in vivo, Athymic nu/nu nude mice
Method: Surgical orthotopic implantation (SOI) for the establishment of the osteosarcoma PDOX model
The PDOX model in Athymic nu/nu nude mice was established according to our earlier reported procedure ([38]). The tumor tissue for implantation was obtained from a OS patient with written informed consent.
The mice were arbitrarily categorized into four dissimilar groups (n=6), and the treatment schedule lasted for 14 days as follows. The compound 8a was dissolved in the solution of PEG400/Tween 80/Saline solution at 10/10/80 % in volume, respectively prior to intraperitoneal administration.
Groups 2, 3, and 4 received compound 8a (2, 5, and 10 mg/kg, respectively, IP, daily)
The control animals received the vehicle only.
The length and width of the tumor along with the bodyweight of mice were recorded.
The tumor volume was calculated with the following formula:
Tumor volume (mm^3)= length (mm) × width (mm) × […])⁄2
Examination of lung histopathology
At the end of the experiment, the lung tissues were harvested and fixed in formalin (10%). The tissues were further entrenched in paraffin, sectioned using a microtome into 5-μm thickness. The resulting sections were dyed using hematoxylin-eosin (HE).

[4] = Pharmacokinetic assessment in SD rats; type: in vivo; conditions: for AUC 0- INF / C max / T max / T ½: rat, in vivo
Method: Pharmacokinetic assessment
The compound 8a was administered to female SD rats in a single dose of 1 and 5 mg/kg using intra-venomous and per-oral route in the vehicle. The blood samples from the rats were collected in a timely manner starting from 2 min to 24 hr. The serum was extracted from the blood-aliquots for the estimation of various pharmacokinetic parameters (T1/2, Tmax, Cmax, AUC0-INF) developed using WinNonlin software using LC-MS/MS (Applied Biosystem, USA).

Structure (SMILES) | IC50 (PI3K) [nM] | IC50 (mTOR) [nM] | IC50 (K562) [nM] | IC50 (KU812) [nM] | IC50 (Saos-2) [nM] | other results
Cc1nc(NC(=O)c2ccc(CN3CCN(c4ccc(Cl)cc4)CC3)cc2)nc(Nc2nccc(-c3nccs3)n2)n1 [Compound 8a] | 786 | 345 | 620 | 722 | 210 | Effect on cell cycle of Saos-2 cells (Saos-2 cells [1]): G2/M phase arrest; Effect on apoptosis of Saos-2 cells (Saos-2 cells [2]): dose-dependently increases apoptosis; Effect on lung metastasis (lung histopathology) ([3]; PDOX mice, 2 mg/kg IP daily, 14 days): does not have a significant effect; Effect on lung metastasis (lung histopathology) ([3]; PDOX mice, 5 mg/kg IP daily, 14 days): less necrotic lesions and minimum interstitial hemorrhages; Effect on lung metastasis (lung architecture, histopathology) ([3]; PDOX mice, 10 mg/kg IP daily, 14 days): significantly restored close to normal; Body weight of mice ([3]; PDOX mice, 2, 5 and 10 mg/kg IP daily, 14 days, vs control): improvement in body weight; Tumor volume ([3]; PDOX mice, 2, 5 and 10 mg/kg IP daily, at the end of the study): significantly reduced; Tolerability in the pharmacokinetic study ([4]; SD rats, 1 mg/kg IV and 5 mg/kg PO single dose): well-tolerated; AUC 0- INF ([4]; iv, 1 mg/kg): 61.201 µg·h/mL; C max ([4]; iv, 1 mg/kg): 8126 ng/mL; T max ([4]; iv, 1 mg/kg): 8 min; T ½ ([4]; iv, 1 mg/kg): 45 min; AUC 0- INF ([4]; po, 5 mg/kg): 297.326 µg·h/mL; C max ([4]; po, 5 mg/kg): 410 ng/mL; T max ([4]; po, 5 mg/kg): 160 min; T ½ ([4]; po, 5 mg/kg): 210 min
Cc1nc(NC(=O)c2ccc(CN3CCN(c4ccc(Br)cc4)CC3)cc2)nc(Nc2nccc(-c3nccs3)n2)n1 [Compound 8b] | 885 | 389 | 730 | 830 | 268 | 
COc1ccc(N2CCN(Cc3ccc(C(=O)Nc4nc(C)nc(Nc5nccc(-c6nccs6)n5)n4)cc3)CC2)cc1 [Compound 8f] | 1250 | 834 | 1200 | 1230 | 905 | 
Cc1nc(NC(=O)c2ccc(CN3CCN(c4ccc([N+](=O)[O-])cc4)CC3)cc2)nc(Nc2nccc(-c3nccs3)n2)n1 [Compound 8d] | 905 | 414 | 822 | 950 | 340 | 
Cc1nc(NC(=O)c2ccc(CN3CCN(c4ccc(O)cc4)CC3)cc2)nc(Nc2nccc(-c3nccs3)n2)n1 [Compound 8e] | 987 | 456 | 887 | 1140 | 478 | 
Cc1ccc(N2CCN(Cc3ccc(C(=O)Nc4nc(C)nc(Nc5nccc(-c6nccs6)n5)n4)cc3)CC2)cc1 [Compound 8c] | 967 | 490 | 900 | 1030 | 530 | 
